# From patent US8912144B2, “Method for treating stroke via administration of NEP1-40 and inosine” (Children's Medical Center Corporation, priority 2003, dated 2014)
# Test system: corticospinal neurons (CSNs/CSMNs)
# Test: Laser-capture microdissection and Illumina microarray gene expression in corticospinal neurons contralateral to stroke
# Format: in vivo, rat
# Method: In a separate group of animals (n=20), layer V pyramidal cells of the sensorimotor cortex were retrogradely labeled by injecting Alexa-Fluor-488-conjugated cholera toxin B subunit (CTB; 300 U/μl in sterile saline) into the cervical spinal cord. For this, animals were anesthetized with a combination of ketamine and Domitor (medetomidine) and a laminectomy was performed at the cervical level of the spinal cord (C2-C4). CTB was stereotaxically delivered into four sites lateral to the corticospinal tract. Injections (1.3 μl) were spaced 1 mm apart on the rostro-caudal axis, and were made 0.5 mm to the left and right of the midline. After allowing two weeks for transport of the tracer, we performed either sham surgery with no treatment (n=6) or stroke surgery combined with saline (n=3) or inosine (n=4) treatment as described above. Seven days later, animals were decapitated under transient gas anesthesia, brains were removed and rinsed in cold RPMI medium, and a tissue block containing the sensorimotor cortex was dissected and placed in OCT Tissue Tek Medium (Sakura Finetek USA Inc., CA) on dry ice within five minutes of death. Ten μm sections were cut onto precleaned Gold Seal RITE-ON glass slides (Gold Seal Prod-ucts, Portsmouth, N.H.), placed on dry ice, and rapidly stored at −80° C.
# Slide-mounted sections were thawed and dehydrated in RNAse-free ethanol gradients and xylene. Retro-gradely labeled, fluorescent cortical pyramidal cells in the undamaged hemisphere were individually captured using the Arcturus VERITAS system. ≧500 cells were collected from each animal and stored in Arcturus extraction buffer at −80° C. Total RNA was extracted from cells using the Micro-to-Midi TotalRNA Purification System (Invitrogen, Carlsbad Calif.) and double-amplified using the TargetAmp 2-Round Aminoallyl-aRNA Amplification kit 1.0 (Epicentre, Madison, Wis.). Amplified RNA was checked for average fragment length using the Agilent RNA 6000 Nano LabChip kit (Agilent Technologies, Santa Clara, Calif.) and then biotinylated and hybridized (1 μg) on Illumina RatRef-12 Expression BeadChip arrays (Illumina, San Diego Calif.), querying the expression of >22,000 RefSeq-curated rat transcripts. Results were obtained from a total of 15 samples representing 6 untreated controls, 4 animals with stroke treated with saline and 5 animals with stroke treated with inosine. Slides were processed and scanned with Illumina BeadStation platform according to the manufacturer protocol.
# Raw data was analyzed using Bioconductor packages (www.bioconductor.org, (Gentleman et al., 2004)). Low level quality-control analysis was performed using inter-array Pearson correlation and clustering based on variance. Two arrays (1 saline and 1 inosine-treated) were outliers and were excluded from the analysis. Data was normalized using quantile normalization, and analysis of differential expression was performed using a linear model fitting (LIMMA package, (Smyth, 2005). Differentially expressed genes were classified according to gene ontology using Bioconductor packages and online tools (DAVID, http://david.abcc.ncifcrf.gov/). Pathway analysis was carried out using Ingenuity Pathway Analysis (Ingenuity Systems, www.ingenuity.com).
smiles,measurement,setting,value
OC[C@H]1O[C@@H](n2cnc3c(O)ncnc32)[C@H](O)[C@@H]1O [inosine],"Signal Intensity, LOC500629","ILMN_61521, inosine after stroke",946
same,"Fold-Induction Stroke, ino vs. cntrl, LOC500137",ILMN_61607,0.58
same,"Signal Intensity, LOC500137","ILMN_61607, inosine after stroke",454
same,"Fold-Induction Stroke, ino vs. cntrl, Slc6a15",ILMN_61840,0.43
same,"Signal Intensity, Slc6a15","ILMN_61840, inosine after stroke",1093
same,"Fold-Induction Stroke, ino vs. cntrl, Bpnt1",ILMN_62095,0.70
same,"Signal Intensity, Bpnt1","ILMN_62095, inosine after stroke",283
same,Fold-induction CSMNs: Ftl1,"ILMN_62100, over and above inosine's effect of decreasing stroke-induced changes",1.74 fold
same,"Fold-Induction Stroke, ino vs. cntrl, Ddx1",ILMN_62325,0.57
same,"Signal Intensity, Ddx1","ILMN_62325, inosine after stroke",3553
same,Fold-induction CSMNs: Timp1,"ILMN_62559, over and above inosine's effect of decreasing stroke-induced changes",3.74 fold
same,"Fold-Induction Stroke, ino vs. cntrl, Rab18",ILMN_62620,0.76
same,"Signal Intensity, Rab18","ILMN_62620, inosine after stroke",2230
same,Fold-induction CSMNs: Eif4ebp1,"ILMN_62651, over and above inosine's effect of decreasing stroke-induced changes",1.86 fold
same,"Fold-Induction Stroke, ino vs. cntrl, Grinl1a",ILMN_62918,0.66
same,"Signal Intensity, Grinl1a","ILMN_62918, inosine after stroke",667
same,"Fold-Induction Stroke, ino vs. cntrl, Ppp1cb",ILMN_62999,0.42
same,"Signal Intensity, Ppp1cb","ILMN_62999, inosine after stroke",940
same,"Fold-Induction Stroke, ino vs. cntrl, LOC302559",ILMN_63077,0.89
same,"Signal Intensity, LOC302559","ILMN_63077, inosine after stroke",1031
same,"Fold-Induction Stroke, ino vs. cntrl, LOC366673",ILMN_63297,0.60
same,"Signal Intensity, LOC366673","ILMN_63297, inosine after stroke",298
same,"Fold-Induction Stroke, ino vs. cntrl, Rcn2",ILMN_63299,0.60
same,"Signal Intensity, Rcn2","ILMN_63299, inosine after stroke",442
same,"Fold-Induction Stroke, ino vs. cntrl, Gtl6",ILMN_63474,0.51
same,"Signal Intensity, Gtl6","ILMN_63474, inosine after stroke",302
same,"Fold-Induction, complement cascade gene C2","ILMN_63608, LCM-captured CSMNs contralateral a stroke",2.93 fold
same,"Fold-Induction Stroke, ino vs. cntrl, Cdc91l1",ILMN_63884,0.82
same,"Signal Intensity, Cdc91l1","ILMN_63884, inosine after stroke",529
same,"Fold-Induction Stroke, ino vs. cntrl, LOC306428",ILMN_63947,0.42
same,"Signal Intensity, LOC306428","ILMN_63947, inosine after stroke",507
same,"Fold-Induction Stroke, ino vs. cntrl, LOC500436",ILMN_64006,0.48
same,"Signal Intensity, LOC500436","ILMN_64006, inosine after stroke",1871
same,"Fold-Induction Stroke, ino vs. cntrl, LOC366411",ILMN_64007,0.51
same,"Signal Intensity, LOC366411","ILMN_64007, inosine after stroke",295
same,"Fold-Induction Stroke, ino vs. cntrl, Bcl10",ILMN_64237,0.84
same,"Signal Intensity, Bcl10","ILMN_64237, inosine after stroke",723
same,"Fold-Induction Stroke, ino vs. cntrl, Magi3",ILMN_64781,0.79
same,"Signal Intensity, Magi3","ILMN_64781, inosine after stroke",472
same,"Fold-Induction Stroke, ino vs. cntrl, Rtn4",ILMN_64945,0.57
same,"Signal Intensity, Rtn4","ILMN_64945, inosine after stroke",6518
same,"Fold-Induction Stroke, ino vs. cntrl, LOC500501",ILMN_65062,0.79
same,"Signal Intensity, LOC500501","ILMN_65062, inosine after stroke",958
same,"Fold-Induction Stroke, ino vs. cntrl, LOC287212",ILMN_65170,0.60
same,"Signal Intensity, LOC287212","ILMN_65170, inosine after stroke",1634
same,"Fold-Induction Stroke, ino vs. cntrl, LOC499328",ILMN_65309,0.53
same,"Signal Intensity, LOC499328","ILMN_65309, inosine after stroke",899
same,"Fold-Induction Stroke, ino vs. cntrl, Psmb5",ILMN_65450,0.65
same,"Signal Intensity, Psmb5","ILMN_65450, inosine after stroke",2709
same,"Fold-Induction Stroke, ino vs. cntrl, Hnrpf",ILMN_65510,0.86
same,"Signal Intensity, Hnrpf","ILMN_65510, inosine after stroke",1922
same,"Fold-Induction Stroke, ino vs. cntrl, Psma7",ILMN_65587,0.62
same,"Signal Intensity, Psma7","ILMN_65587, inosine after stroke",2058
same,"Fold-Induction Stroke, ino vs. cntrl, LOC497663",ILMN_65610,0.90
same,"Signal Intensity, LOC497663","ILMN_65610, inosine after stroke",416
same,"Fold-Induction Stroke, ino vs. cntrl, Pafah1b2",ILMN_65657,0.56
same,"Signal Intensity, Pafah1b2","ILMN_65657, inosine after stroke",411
same,"Fold-Induction Stroke, ino vs. cntrl, LOC294046",ILMN_65667,0.55
same,"Signal Intensity, LOC294046","ILMN_65667, inosine after stroke",2096
same,"Fold-Induction Stroke, ino vs. cntrl, Rchy1",ILMN_65668,0.77
same,"Signal Intensity, Rchy1","ILMN_65668, inosine after stroke",416
same,"Fold-Induction Stroke, ino vs. cntrl, LOC501181",ILMN_65702,0.49
same,"Signal Intensity, LOC501181","ILMN_65702, inosine after stroke",268
same,"Fold-Induction Stroke, ino vs. cntrl, Mal",ILMN_65814,0.40
same,"Signal Intensity, Mal","ILMN_65814, inosine after stroke",465
same,"Fold-Induction Stroke, ino vs. cntrl, MGC93921",ILMN_65993,0.69
same,"Signal Intensity, MGC93921","ILMN_65993, inosine after stroke",845
same,"Fold-Induction Stroke, ino vs. cntrl, LOC299179",ILMN_66036,0.76
same,"Signal Intensity, LOC299179","ILMN_66036, inosine after stroke",385
same,"Fold-Induction Stroke, ino vs. cntrl, LOC317232",ILMN_66272,0.70
same,"Signal Intensity, LOC317232","ILMN_66272, inosine after stroke",5211
same,"Fold-Induction Stroke, ino vs. cntrl, Spnb4",ILMN_66300,0.72
